Values quoted from earlier work in patent US20100151018A1, “SUSTAINED-RELEASE LEVETIRACETAM COMPOSITION AND PREPARATION PROCESS” (RD- Pharmagal, priority 2007, published 2010).
≈ marks a conversion by molar mass, not a printed value.

What was measured:
[1] = not given; remark: listed apart in the source

Row | SMILES | solubility in water | plasma half-life ([1]; in adults) [h] | bioavailability ([1]; oral administration of immediate-release tablets)
1 | CC[C@@H](C(N)=O)N1CCCC1=O [levetiracetam, S-enantiomer of a-ethyl-2-oxo-1-pyrrolidine acetamide] | approximately 104.0 g/100 ml | 7 | approximately 100%
2 | NC(=O)N1c2ccccc2CC(=O)c2ccccc21 [oxcarbazepine] | 308 µg/mL (≈ 1220 µM) |  | 
